Reference: PubChem BioAssay (NCI)
“And” between values parts separate entries of the source, which are not always exact repeats. Equal values may be shown once.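 Cells were grown in 96-well plates and exposed to each compound for 48 hours at five concentrations; endpoints were interpolated linearly between bracketing concentrations, or set to the highest concentration if not reached. GI50 is the concentration that inhibits growth by half. Definition used: TGI = concentration required for complete inhibition of growth.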

Assays:
Assay in all cases: NCI-60 cell line screen, 48 h
[1] = tested on: MOLT-4 leukemia
[2] = tested on: NCI-H226 lung
[3] = tested on: NCI-H23 lung
[4] = tested on: NCI-H460 lung
[5] = tested on: NCI-H522 lung
[6] = tested on: NCI/ADR-RES ovarian
[7] = tested on: OVCAR-3 ovarian
[8] = tested on: OVCAR-4 ovarian
[9] = tested on: OVCAR-5 ovarian
[10] = tested on: OVCAR-8 ovarian
[11] = tested on: PC-3 prostate
[12] = tested on: RPMI-8226 leukemia
[13] = tested on: RXF 393 renal
[14] = tested on: SF-268 CNS
[15] = tested on: SF-295 CNS
[16] = tested on: SF-539 CNS
[17] = tested on: SK-MEL-2 melanoma
[18] = tested on: SK-MEL-28 melanoma
[19] = tested on: SK-MEL-5 melanoma
[20] = tested on: SK-OV-3 ovarian
[21] = tested on: SN12C renal
[22] = tested on: SNB-19 CNS
[23] = tested on: SNB-75 CNS
[24] = tested on: SR leukemia
[25] = tested on: SW-620 colon
[26] = tested on: T-47D breast
[27] = tested on: TK-10 renal
[28] = tested on: U251 CNS
[29] = tested on: UACC-257 melanoma
[30] = tested on: UACC-62 melanoma

CN(C)C1CCN(C(=O)c2ccc(NC(=O)Nc3ccc(-c4nc(N5CCOCC5)nc(N5CCOCC5)n4)cc3)cc2)CC1
GI50 [1]: 31.1 nM and 18 nM and 77.2 nM
TGI [2]: 380 nM and 1950 nM and 257 nM
GI50 [3]: 36.8 nM and 29.7 nM and 73.2 nM
TGI [3]: 15700 nM and 2500 nM and 2300 nM
GI50 [4]: 29 nM and 33.4 nM and 60.8 nM
GI50 [5]: 10.2 nM and 10.3 nM and 24.6 nM
TGI [5]: 75.8 nM and 207 nM and 371 nM
GI50 [6]: 29400 nM and 4870 nM
TGI [6]: > 100000 nM
GI50 [7]: 14.8 nM and 13.9 nM and 28.2 nM
TGI [7]: 603 nM and 366 nM and 935 nM
GI50 [8]: < 10 nM and 7.76 nM and 12.7 nM
GI50 [9]: 16.7 nM and 31.7 nM and 16.6 nM
TGI [9]: 325 nM and 2500 nM and 331 nM
GI50 [10]: 54.5 nM and 92.6 nM and 437 nM
GI50 [11]: < 10 nM and 10.8 nM and 30.9 nM
TGI [11]: 407 nM and 216 nM and 1060 nM
GI50 [12]: 40.4 nM and 61.5 nM and 97.8 nM
GI50 [13]: 23 nM and 27.1 nM and 210 nM
GI50 [14]: 22.9 nM and 20.7 nM and 43.4 nM
GI50 [15]: 73.2 nM and 71.1 nM and 639 nM
TGI [15]: 577 nM and 502 nM and 3520 nM
GI50 [16]: < 12.9 nM and 14.3 nM and 41.6 nM
GI50 [17]: 23.6 nM and 24.3 nM and 19.6 nM
TGI [17]: 74.4 nM and 113 nM and 90 nM
GI50 [18]: 23.1 nM and 39.2 nM and 15.9 nM
TGI [18]: 245 nM and 248 nM and 144 nM
GI50 [19]: 61.3 nM and 548 nM
TGI [19]: 323 nM and 2180 nM
GI50 [20]: < 10 nM and 7.32 nM and 20.4 nM
TGI [20]: 48.5 nM and 43.4 nM and 188 nM
GI50 [21]: < 12.9 nM and 13.3 nM and 20.8 nM
TGI [21]: 13100 nM and 2500 nM and > 10000 nM
GI50 [22]: < 12.3 nM and 13.1 nM and 17.4 nM
TGI [22]: 4230 nM and 2500 nM and 875 nM
GI50 [23]: < 10 nM and 5.85 nM and 5.68 nM
TGI [23]: 16.4 nM and 42.7 nM and 78.3 nM
GI50 [24]: 66.6 nM and 12.3 nM
GI50 [25]: 34.6 nM and 68.9 nM and 30 nM
GI50 [26]: < 10 nM and 3.86 nM and 5.6 nM
TGI [26]: 34.5 nM and 17.6 nM and 88.4 nM
GI50 [27]: 363 nM and 389 nM and 122 nM
TGI [27]: 1840 nM and 1560 nM and 2500 nM
GI50 [28]: 17.1 nM and 11.6 nM and 37.5 nM
TGI [28]: 15100 nM and 2500 nM and 2440 nM
GI50 [29]: 28.9 nM and 63.3 nM and 26.6 nM
TGI [29]: 151 nM and 386 nM and 243 nM
GI50 [30]: 23.3 nM and 16.9 nM and 12.5 nM
TGI [30]: 109 nM and 121 nM and 127 nM
